Data from patent US9771378B2 (Denali Therapeutics, Inc., priority 2014, dated 2017).
pIC50: −log10 of the molar value.

System: Aβ42 (human neuroglioma H4 cells expressing human wild type APP751)
Assay: In vitro cell screening assay with sandwich ELISA quantification of Aβ42 peptide
Assay type: cell-based
Conditions: H4 cells stably expressing human wild type APP751; Pro293 chemically defined medium; compounds 0.003-10 μM; incubated overnight (16-18 h); supernatant Aβ42 by sandwich ELISA; normalized to DMSO and DAPT; read-out: Aβ42 H4 Prot Fre IC50
Experimental: Human neuroglioma H4 cells were transfected with a pcDNA3.1 plasmid expressing human wild type APP751 cDNA and a stable cell line was generated using G418 selection. Cells are plated at 15,000 cells/well in Costar 96-well plates and placed at 37° C. and 5% CO2. Six hours after plating, cells are washed three times with Pro293™ chemically defined medium, followed by addition of compounds (0.003-10 μM, final DMSO concentration of 0.33%). Plates were incubated overnight (16-18 h) and supernatant was removed for quantification of AP peptides by sandwich ELISA. Cytotoxicity was evaluated using Cell-Titer 96W AQueous One Solution Cell Proliferation Assay according to the manufacturer's protocol.
ELISA Measurements of Aβ Peptides
Aβ peptide levels were quantified by sandwich ELISA. 96-well plates are coated with C-terminal specific Aβ antibodies recognizing either Aβ37, Aβ38, Aβ40, Aβ42, Aβ43 or a N-terminal specific Aβ antibody to detect Aβ 1-x. Plates are then blocked overnight at 4° C. with 1% bovine serum albumin (BSA) in PBS-T. Plates are washed and 100 μl of cultured cell supernatant or synthetic Aβ peptide standards and a detection antibody (4G8-HRP) are applied to the blocked plate and incubated overnight at 4° C. The next day, wells are washed before the addition […] of detection substrate (TMB peroxidase). Plates are then read for absorbance at 450 nm on a Molecular Devices SpectraMax M5e Microplate Reader.
IC50 values were calculated from values reported as percent of DMSO controls using nonlinear regression, based on a sigmoidal dose-response (variable slope) model. GraphPAD software from Prism used for calculation.

Compound | pIC50
Cc1cn(-c2ccc(Nc3ncc4c(n3)N(C)C(Cc3ccccc3)CO4)cc2F)cn1 (single isomer, unassigned; (-)) [Example 59B] | 6.34
COc1ccc(C2COc3cnc(Nc4cnc(-n5cnc(C)c5)c(OC)c4)nc3N2C)c(Cl)c1 (single isomer, unassigned; (+)) [Example 209A] | 7.68
COc1cc(Nc2ncc3c(n2)N(C)C(C)(C)CO3)ccc1-c1cnn(C)c1 [Example 267] | 6.09
COc1cc(Nc2ncc3c(n2)N(C)C(c2ccc(F)cc2C(F)(F)F)CO3)ccc1-n1cnc(C)c1 (single isomer, unassigned; (+)) [Example 94B] | 7.54
COc1cc(Nc2ncc3c(n2)N(C)C(C2CC(F)(F)C2)CO3)ccc1-n1cnc(C)c1 (single isomer, unassigned; (-)) [Example 212A] | 6.46
Cc1cn(-c2ccc(Nc3ncc4c(n3)N(C)C(C)CO4)cc2F)cn1 (single isomer, unassigned; (+)) [Example 108B] | 6.97
COc1cc(Nc2ncc3c(n2)N(C)C(c2ccc(F)cc2)CO3)ccc1-n1cnc(C)c1 (single isomer, unassigned; (-)) [Example 49A] | 6.72
COc1cc(Nc2ncc3c(n2)N(C)[C@@H](C(C)(C)C)CO3)ccc1-n1cnc(C)c1 [Example 240] | 7.68
COc1cc(Nc2ncc3c(n2)N(C)C(c2ccccc2C)CO3)cnc1-n1cnc(C)c1 (single isomer, unassigned; (+)) [Example 171A] | 7.96
COc1cc(Nc2ncc3c(n2)N2CCC[C@@]2(C)CO3)ccc1-n1cnc(C)c1 [Example 291, (S)-N-(3-methoxy-4-(4-methyl-1H-imidazol-1-yl)phenyl)-6a-methyl-6a, 7,8,9-tetrahydro-6H-pyrimido [5,4-b] pyrrolo [1,2-d] [1, 4] oxazin-2-amine] | 6.88
Cc1cn(-c2ccc(Nc3ncc4c(n3)N(C)C(c3ccc(Cl)cc3Cl)CO4)cc2F)cn1 (single isomer, unassigned; (-)) [Example 96B] | 6.06
COc1cc(Nc2ncc3c(n2)N(C)C(c2cc(C(F)(F)F)ccc2Cl)CO3)ccc1-n1cnc(C)c1 (single isomer, unassigned; (-)) [Example 88B] | 6.54
COc1cc(Nc2ncc3c(n2)N(C)C(CC(F)(F)F)CO3)ccc1-n1cnc(C)c1 (single isomer, unassigned; (+)) [Example 172B] | 7.27
COc1ccc(C2COc3cnc(Nc4ccc(-n5cnc(C)c5)c(OC)c4)nc3N2C)c(Cl)c1 (racemic) [Example 86] | 7.42
Cc1cn(-c2ccc(Nc3ncc4c(n3)N(C)C(c3ccccc3Cl)CO4)cc2F)cn1 (single isomer, unassigned; (+)) [Example 67A] | 6.91
COc1cc(Nc2ncc3c(n2)N(C)C(C2COC2)CO3)ccc1-n1cnc(C)c1 (single isomer, unassigned; (+)) [Example 241B] | 6.47
COc1cc(Nc2ncc3c(n2)N(C)C(c2cc(Cl)ccc2C(F)(F)F)CO3)ccc1-n1cnc(C)c1 (single isomer, unassigned; (+)) [Example 165A] | 7.05
COc1cc(Nc2ncc3c(n2)N(C)C(c2ccccc2)CO3)ccc1-c1ccnc(C)c1 (racemic) [Example 46, N-(3-methoxy-4-(2-methylpyridin-4-yl)phenyl)-8-methyl-7-phenyl-7,8-dihydro-6H-pyrimido[5,4-b][1,4]oxazin-2-amine] | 7.32
Cc1cn(-c2ccc(Nc3ncc4c(n3)N(C)C(c3cc(F)c(F)cc3F)CO4)cc2F)cn1 (single isomer, unassigned; (-)) [Example 98B] | 5.68
COc1cc(Nc2ncc3c(n2)N(C)C(C2CC(F)(F)C2)CO3)cnc1-n1cnc(C)c1 (single isomer, unassigned; (-)) [Example 219B] | 6.40
Cc1cn(-c2ccc(Nc3ncc4c(n3)N(C)C(c3cc(F)c(F)cc3Cl)CO4)cc2F)cn1 (single isomer, unassigned; (+)) [Example 169A] | 7.35
COc1cc(Nc2ncc3c(n2)N(C)C(CC(F)(F)F)CO3)ccc1-n1cnc(C)c1 (single isomer, unassigned; (-)) [Example 172A] | 6.68
Cc1cc(-c2ccc(Nc3ncc4c(n3)N(C)C(c3ccccc3)CO4)cc2F)ccn1 (single isomer, unassigned; (+)) [Example 27A] | 6.51

Compound | pIC50
COc1cc(Nc2ncc3c(n2)N2CCC[C@]2(C)CO3)ccc1-n1cnc(C)c1 [Example 294, (R)-N-(3-methoxy-4-(4-methyl-1H-imidazol-1-yl)phenyl)-6a-methyl-6a, 7,8,9-tetrahydro-6H-pyrimido [5,4-b] pyrrolo [1,2-d] [1, 4] oxazin-2-amine] | 7.10
COc1cc(Nc2ncc3c(n2)N(C)C(C2CCC(F)(F)CC2)CO3)cnc1-n1cnc(C)c1 (single isomer, unassigned; (-)) [Example 221B] | 6.49
Cc1cn(-c2ccc(Nc3ncc4c(n3)N3CCCC3CO4)cc2F)cn1 (single isomer, unassigned; (-)) [Example 289B] | 6.80
Cc1cn(-c2ccc(Nc3ncc4c(n3)N3CCC[C@@]3(C)CO4)cc2F)cn1 [Example 292, (S)-N-(3-fluoro-4-(4-methyl-1H-imidazol-1-yl)phenyl)-6a-methyl-6a, 7,8,9-tetrahydro-6H-pyrimido [5,4-b] pyrrolo [1,2-d] [1, 4] oxazin-2-amine] | 6.36
Cc1cn(-c2ccc(Nc3ncc4c(n3)N(C)C(c3cc(F)cc(F)c3)CO4)cc2)cn1 (single isomer, unassigned; (+)) [Example 23B] | 7.49
Cc1cn(-c2ccc(Nc3ncc4c(n3)N(C)C(c3ccccc3C(F)(F)F)CO4)cc2F)cn1 (single isomer, unassigned; (-)) [Example 84B] | 6.38
COc1cc(Nc2ncc3c(n2)N(C)C(C(F)(F)F)CO3)ncc1-n1cnc(C)c1 (single isomer, unassigned; (-)) [Example 236B] | 6.61
COc1cc(Nc2ncc3c(n2)N(C)C(C2CCOCC2)CO3)ccc1-n1cnc(C)c1 (single isomer, unassigned; (+)) [Example 114B] | 7.11
COc1cc(Nc2ncc3c(n2)N(C)C(CC(F)(F)F)CO3)cnc1-n1cnc(C)c1 (single isomer, unassigned; (+)) [Example 238B] | 7.18
COc1cc(Nc2ncc3c(n2)N(C)C(C2CCC(F)(F)CC2)CO3)cnc1-n1cnc(C)c1 (single isomer, unassigned; (+)) [Example 221A] | 7.62
COc1cc(Nc2ncc3c(n2)N(C)C(c2ccccc2OC(F)(F)F)CO3)ccc1-c1ccnc(C)c1 (single isomer, unassigned; (+)) [Example 62B] | 6.78
COc1cc(Nc2ncc3c(n2)N(C)C(C)CO3)ccc1-n1cnc(C)c1 (single isomer, unassigned; (+)) [Example 116B] | 7.20
COc1cc(Nc2ncc3c(n2)N(C)C(c2cc(F)c(F)cc2Cl)CO3)ccc1-n1cnc(C)c1 (single isomer, unassigned; (-)) [Example 103B] | 6.66
Cc1cn(-c2ccc(Nc3ncc4c(n3)N(C)C(C)CO4)cc2OC(F)(F)F)cn1 (single isomer, unassigned; (-)) [Example 213A] | < 5.52
COc1cc(Nc2ncc3c(n2)N(C)C(c2ccc(F)cc2)CO3)ccc1-n1cnc(C)c1 (single isomer, unassigned; (+)) [Example 49B] | 8.05
Cc1cn(-c2ccc(Nc3ncc4c(n3)N(C)C(C)CO4)cc2C(F)F)cn1 (single isomer, unassigned; (-)) [Example 214B] | 5.65
COc1cc(Nc2ncc3c(n2)N(C)C(c2ccc(F)cc2C)CO3)ccc1-n1cnc(C)c1 (single isomer, unassigned; (+)) [Example 117B] | 7.66
COc1cc(Nc2ncc3c(n2)N(C)C(c2cc(F)cc(F)c2)CO3)ccc1-c1ccnc(C)c1 (single isomer, unassigned; (+)) [Example 42A] | 7.44
COc1cc(Nc2ncc3c(n2)N(C)C(c2ccccc2)CO3)ccc1-n1cnc(C)c1 (racemic) [Example 45, N-(3-methoxy-4-(4-methyl-1H-imidazol-1-yl)phenyl)-8-methyl-7-phenyl-7,8-dihydro-6H-pyrimido[5,4-b][1,4]oxazin-2-amine] | 7.24
Cc1cn(-c2ccc(Nc3ncc4c(n3)N(C)C(c3cc(F)cc(F)c3)CO4)cc2F)cn1 (single isomer, unassigned; (-)) [Example 33B] | 6.41
COc1cc(Nc2ncc3c(n2)N(C)C(c2ccccc2C(F)(F)F)CO3)ccc1-n1cnc(C)c1 (single isomer, unassigned; (+)) [Example 55B] | 7.18
COc1ccc(C2COc3cnc(Nc4cnc(-n5cnc(C)c5)c(OC)c4)nc3N2C)c(Cl)c1 (single isomer, unassigned; (-)) [Example 209B] | 7.26
COc1cc(Nc2ncc3c(n2)N(C)C(Cc2ccccc2)CO3)ccc1-n1cnc(C)c1 (single isomer, unassigned; (+)) [Example 47A] | 7.64
